Consider one molecule from patent US11564913B2, “Compositions and methods for treating cancer” (Children's Hospital Medical Center, priority 2019, dated 2023).

The test system of one experiment is Nalm-1 cells. As to the kind of experiment: Cell survival, trypan blue exclusion. The class given is cell-based. How it is done: (B) IODVA1-dependent survival curves of empty vector (red circles) or p190-BCR-ABL1 (black circles) expressing Ba/F3 cells and of Nalm-1 cells. […] (C) p190-BCR-ABL1 (grey line) or Mieg3 (black line) expressing Ba/F3 cells were allowed to grow for 1 day, treated with IODVA1 (IO1, 1 μM) for 1 day, and washed (black arrow). Cells were counted for 7 days using trypan blue exclusion. (D) Ba/F3 cells stably expressing p190-BCR-ABL1 were subjected to colony formation assay in soft agar (0.25% Noble Agar in RPMI/FBS/IL-3) in the presence of DMSO or IODVA1 (1 or 10 μM). Colonies were allowed to form for 10 days then stained with iodonitrotetrazolium (1 mg/mL). Data are representative of at least three independent experiments in triplicates. Note the smaller colony size in 1 μM IODVA1 treatment group. (E) Leukemic burden (%) of treated mice before treatment (left upper panel) and at the indicated treatment time was analyzed by flow cytometry of bone marrow aspirates as population containing B220^+/CD43^+ pro-B cells. (F) Count (%) of residual leukemic (EGFP^+-BCR-ABL1) cells in peripheral blood at weeks 3 and 5 for the secondary transplant mice from FIG. 1D. […]
IODVA1 specifically targets BCR-ABL B-ALL cells in vitro. […] We then assessed survival of p190-BCR-ABL-transformed CD34^+ cells in the presence of IODVA1 by trypan blue exclusion. […]

In experiment [1] the test system is pJNK, pS6, p4EBP, pPAK1, pAKT in p190-BCR-ABL expressing Ba/F3 cells. Put plainly: Phospho-flow cytometry of effectors. The class given is cell-based, murine. The settings on record: 3 μM, 30 min. Here is the method: (§1) FIG. 13: IODVA1 decreases Rac activation and signaling. (A) Ba/F3 cells expressing p190-BCR-ABL1 were treated with IODVA1 (3 μM) as indicated and levels of active Rac (Rac-GTP) were assessed by pull-down using GST-PAK-GBD, followed by immunoblotting (upper panel) and densitometric quantification (lower panel). (B) Flow-cytometry analysis of pJNK, pS6, p4EBP, pPAK1, and pAKT of Ba/F3 cells expressing Mieg3 empty vector (light and dark blue) or p190-BCR-ABL1 (light and dark salmon) and treated with vehicle control or IODVA1 (3 μM) for 30 min. (C) Representative histogram data of the cell cycle analysis of Ba/F3 cells expressing p190-BCR-ABL and treated with vehicle control or IODVA1 (1, 3, and 10 μM) for 20 h. (D) Quantification of the average number of colonies of bone marrow wild-type (black) and Rac1^Δ/Δ+Rac2^−/− (red) p190-BCR-ABL1 leukemic cells treated with vehicle control or IODVA1 (IO1, 1 μM). ns—not significant, * p<0.05, ** p<0.01, *** p<0.001. (E) As in FIG. 13A, but cells were incubated for a fixed amount of time (1 h) at the indicated IODVA1 concentrations. (F) Ba/F3 cells expressing p190-BCR-ABL1 were treated with IODVA1 (3 μM) and lysed at the indicated times. Cell lysates were separated on SDS-PAGE and immunoblotted for pPAK(T423), pBAD(S136), and BAD. (G) Ba/F3 cells expressing p190-BCR-ABL1 were treated with IODVA1 (3 μM) and levels of active Cdc42 (Cdc42-GTP) and Rho (Rho-GTP) were assessed by pull-down at the indicated times using GST-PAK-GBD and GST-Rhotekin respectively, followed by immunoblotting (left panel) and densitometric quantification (right panel). (H) Morphology of GFP^+ leukemic colonies (left panel). Western blot analysis of Rac1 and Rac2 protein expression in Rac1^Δ/Δ+Rac2^−/− cells post poly-I:C injections (right panel). (I) Intrinsic (blue line) and p50GAP-stimulated GTP-hydrolysis reaction in the presence (red line) or absence (black line) of IODVA1. (J) Sedimentation assay of liposomal Rac1-GDP in the presence of IODVA1 (2 μM). Rac1 was visualized by immunoblotting from pellet (p) and soluble (s) fractions. (K) Stopped-flow measurement of GDI (10 μM) interaction with fluorescently-labelled Rac1 in the absence (black line) or presence (orange line) of IODVA1.
(§2) Expression of BCR-ABL1 increases the phosphorylation levels of JNK, S6, 4EBP, PAK, and AKT by more than 2.5 times (FIG. 13B). IODVA1 decreases the phosphorylation levels of JNK by 1.8 (p=0.015), S6 by 1.5 (p=0.05), 4EBP by 3.0 (p=0.009), and PAK by 6.1 (p=0.004) fold, respectively. […] The decrease in JNK, S6, and 4EBP activity in IODVA1-treated Ba/F3 cells mirrors the decrease observed in LDBM cells from IODVA1-treated p210-T315I mice in pharmacodynamics studies (FIG. 12C). Together, our in vitro and in vivo data are consistent with IODVA1 targeting activation of Rac and its downstream signaling.
(In flow cytometry, cells or beads pass a laser one at a time.)

The test system of experiment [2] is effector phosphorylation in empty vector expressing Ba/F3 cells. Put plainly: Phospho-flow cytometry of effectors. The experiment is classed as cell-based, murine. The settings on record: 3 μM, 30 min. How it is done: as §1, §2

As to `OC1(c2ccccn2)N=C(Nc2nc3ccccc3[nH]2)N=C1c1ccccn1` (stereo not shown) [IODVA1, (Z)-2-((1H-benzo[d]imidazol-2-yl)imino)-4,5-di(pyridin-2-yl)-2,5-dihydro-1H-imidazol-5-ol], the midpoint of the response with Nalm-1 cells, the EC50, lay at 0.68 µM. Also, the “phosphorylation levels of AKT” value in experiment [1] (regardless of BCR-ABL status) is “did not affect”. Moreover, the “decrease in phosphorylation level of PAK” value in experiment [1] (p=0.004) turned out to be 6.1 fold. In addition, the “decrease in phosphorylation level of 4EBP” value in experiment [1] (p=0.009) was found to be 3.0 fold. Besides, the “decrease in phosphorylation level of JNK” value in experiment [1] (p=0.015) is reported as 1.8 fold. In addition, the “decrease in phosphorylation level of S6” value in experiment [1] (p=0.05) is on record as 1.5 fold. For the same molecule, in experiment [2], the “decrease in the phosphorylation levels of effectors” value was “but not empty vector-expressing cells”.
